Laboratory results taken from patent publication US11795510B2, “Identification of epigenomic reprogramming in cancer and uses thereof” (The Johns Hopkins University, priority 2016, dated 2023).
Entries after “also recorded” stand apart in the source; their conditions may differ.

Assays:
Type in all cases: cell-based, human
A38Lg compared to A38Per = experiment: MTT cell viability assay
Protocol: (§1) Tissue samples and cell lines were previously collected from PDAC patients by rapid autopsy, sequenced-validated, and monitored for mycoplasma as previously described. Low passage (2-17) rapid autopsy cell lines were cultured at 37° C. in DMEM with 10% fetal bovine serum (FBS, Gibco). For MTT assays, 15,000 cells/well were plated into 96 well plates in triplicate, treated 12 hours later, and assayed after 24 hr (glucose responses) or 6 days (chemotherapy) with CellTiter96 (Promega). For glucose response assays, nutrient-deplete DMEM (no glucose, glutamine, pyruvate, or serum) was used with addition of glucose as indicated. For glucose-dependent oxidative stress analysis, cells plated in triplicate and grown to 80% confluence followed by incubation in nutrient-deplete DMEM containing 10% dialyzed FBS with or without 10 mM glucose and 1 mM H2O2 for 24 hours. Cells were then washed with PBS, trypsinized, and viable cells counted with a hemocytometer. Glucose uptake and lactate secretion were measured with a YSI 7100 Bioanalyzer as described in the supplementary methods. For ^13C-1,2 glucose tracing and steady state metabolite profiling, the Q Exactive MS (QE-MS; Thermo Scientific) coupled to liquid chromatography (LC Ultimate 3000 UHPLC) was used for metabolite separation and detection as previously described. Detailed conditions are provided in the supplementary methods.

normal HPDE cells = experiment: Glucose-dependent oxidative stress analysis (viable cell counts), HPDE; conditions: 1 mM H2O2, 24h, with or without 10 mM glucose
Protocol: as §1

[1] = system: local-regional PDAC samples; experiment: Glucose-dependent oxidative stress analysis (viable cell counts), local-regional PDAC; conditions: 1 mM H2O2, 24h, with or without 10 mM glucose
Protocol: as §1

[2] = system: distant metastatic subclones; experiment: Glucose-dependent oxidative stress analysis (viable cell counts), distant metastatic subclones; conditions: 1 mM H2O2, 24h, glucose not present in the media
Protocol: as §1

[3] = system: global chromatin modifications in peritoneal subclone (A38Per), normal cells (HPDE, fibroblast) and local-regional PDACs; experiment: Western blots of histone modifications, peritoneal subclone, normal cells and local-regional PDACs; conditions: peritoneal subclone
Protocol: Histones were acid extracted as described and western blots performed on 3.5 ug histones, which were checked by Ponceau stains prior to western blot to ensure equal loading. Densitometry was performed with ImageJ software. RNA was extracted with Trizol reagent (Life Technologies) and isopropanol precipitated. Genomic DNA was purified with MasterPure DNA extraction reagents (Epicenter). Immunohistochemistry, H&E staining, and immunofluorescence on formalin-fixed, paraffin-embedded (FFPE) tissue microarray sections (TMAs) were performed according to standard procedures.
RNAi experiments were performed with siRNA transfections (Oligofectamine, Life Technologies) using negative control siRNA (Sigma, SIC001) and pre-designed siRNA oligonucleotides against indicated genes in parallel (Sigma, PGD: SASI_Hs02 00334150, CDH2: SASI_Hs01_00153995, TOP2B: SASI_Hs02_00311874). siRNAs against mutant KRAS^G12V (CUACGCCAACAGCUCCAAC) (SEQ ID NO:1) were custom designed. Cells were incubated with siRNAs for 4 days after transfection and harvested. For drug treatments in 2-D, cells were grown to 70-80% confluency and treated for 3 days with 250 uM 6AN or DMSO negative control.

| SMILES | cell viability (MTT) under H2O2-mediated oxidative stress (A38Lg compared to A38Per) | normalized cell counts after H2O2 (normal HPDE cells) | normalized cell counts after H2O2 [1] | normalized cell counts after H2O2 [2] | induction of loss of methylation or gain of acetylation (reprogrammed histone modifications) by chemotherapy [3] | cell viability (MTT) under gemcitabine (A38Lg compared to A38Per; assayed after 6 days) |
| --- | --- | --- | --- | --- | --- | --- |
| OO [H2O2] | highly resistant; also recorded: remarkably resistant | sensitive to H2O2 under either glucose condition | resistant to H2O2 irrespective of glucose availability | sensitive to H2O2 when glucose was not present |  |  |
| Nc1ccn([C@@H]2O[C@H](CO)[C@@H](O)C2(F)F)c(=O)n1 [gemcitabine, Gemcitabine] |  |  |  |  | did not induce | highly resistant; also recorded: completely resistant |
